According to patent US11840686B2, “Modulation of prekallikrein (PKK) expression” (Ionis Pharmaceuticals, Inc., priority 2013, dated 2023):
Strand notation (5' to 3'): a small letter for the sugar, then the base; units joined by * are phosphorothioate-linked, units joined directly phosphodiester-linked; [ ] holds rarer units or linkages, { } end groups; capitals alone tell only the bases. e = 2'-O-(2-methoxyethyl) (MOE); [5mC] = 5-methylcytosine; d = 2'-deoxy (DNA)

System: human PKK mRNA
Test: Antisense inhibition of human PKK mRNA in HepaRG cells, 5,000 nM (Example 2)
Format: cell-based
In short: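 Percent inhibition of PKK mRNA is reported relative to untreated cells, after adjustment for total RNA by RIBOGREEN. Gapmers of 16–20 nucleosides with 2′-MOE wings were delivered at 5,000 nM by electroporation into HepaRG cells and left for roughly 24 hours before RNA isolation.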

[1] = Table 13, human PKK mRNA in HepaRG cells, 5-10-5 gapmers
[2] = human PKK mRNA, HepaRG cells, 5-10-5 motif oligonucleotides targeting SEQ ID NO: 1 and 10
[3] = HepaRG cells, 5,000 nM antisense oligonucleotide, 5-10-5 gapmers, Table 16
[4] = HepaRG cells, 5,000 nM antisense oligonucleotide, human PKK mRNA, Table 18
[5] = HepaRG cells, electroporation, 5,000 nM antisense oligonucleotide, approx. 24 hours, primer probe set RTS3454, relative to untreated control cells, Table 11
[6] = HepaRG cells, electroporation with 5,000 nM antisense oligonucleotide, approximately 24 hours, PKK mRNA by RT-PCR (RTS3454), relative to untreated control cells, Table 5 experiment
[7] = HepaRG cells, electroporation with 5,000 nM antisense oligonucleotide, approximately 24 hours, PKK mRNA by RT-PCR (RTS3454), relative to untreated control cells, Table 6 experiment
[8] = Table 8, HepaRG cells, electroporation with 5,000 nM antisense oligonucleotide, approx. 24 hours, PKK mRNA by RT-PCR (RTS3454), relative to untreated control cells
[9] = human PKK mRNA in HepaRG cells, 5-10-5 gapmers, Table 14
[10] = HepaRG cells, electroporation, 5,000 nM antisense oligonucleotide, approx. 24 hours, primer probe set RTS3454, relative to untreated control cells, Table 12
[11] = human PKK mRNA, HepaRG cells, 5,000 nM antisense oligonucleotide, Table 18
[12] = Table 9 experiment, HepaRG cells, 20,000 cells per well, electroporation with 5,000 nM antisense oligonucleotide, approx. 24 hours, PKK mRNA by RT-PCR (RTS3454), relative to untreated control cells
[13] = Table 10 experiment, HepaRG cells, 20,000 cells per well, electroporation with 5,000 nM antisense oligonucleotide, approx. 24 hours, PKK mRNA by RT-PCR (RTS3454), relative to untreated control cells
[14] = HepaRG cells, 5,000 nM antisense oligonucleotide, 5-10-5 gapmers, Table 17

## 546842 (eT*e[5mC]*eA*e[5mC]*eT*dG*dT*d[5mC]*d[5mC]*dT*dA*dT*dA*dA*d[5mC]*eT*e[5mC]*eT*eA*eA; antisense) [compound 546842]
[1]
  % inhibition: 54%

## 547583 (e[5mC]*eA*e[5mC]*eT*eG*dT*d[5mC]*d[5mC]*dT*dA*dT*dA*dT*d[5mC]*dA*e[5mC]*eT*eG*eT*e[5mC]; antisense) [compound 547583]
[1]
  % inhibition: 80%

## 547651 (eT*eG*eT*eA*e[5mC]*d[5mC]*dT*dA*dT*dA*dA*d[5mC]*dA*dG*dT*eA*eT*e[5mC]*eA*e[5mC]; antisense) [compound 547651]
[2]
  % inhibition: 48%

## 547680 (antisense eT*eA*eT*e[5mC]*eA*d[5mC]*dT*dG*dT*dA*d[5mC]*d[5mC]*dT*dA*dT*eA*eT*e[5mC]*eA*e[5mC]) [compound 547680]
[3]
  % inhibition: 41%

## 547703 (antisense e[5mC]*eA*eA*e[5mC]*eA*dT*d[5mC]*dA*d[5mC]*dT*dG*dT*dA*d[5mC]*d[5mC]*eT*eA*eT*eA*eA) [compound 547703]
[3]
  % inhibition: 25%

## 548710 (DNA eT*eG*eT*dA*d[5mC]*dT*dA*dG*dT*dT*dT*d[5mC]*d[5mC]*eT*eA*eT; antisense) [compound 548710]
[4]
  % inhibition: 0%

## 546784 (eG*eG*e[5mC]*eA*eG*dG*dG*dA*dG*dG*dT*dG*dG*dA*dT*eT*eA*eT*eT*e[5mC]; antisense) [compound 546784]
[1]
  % inhibition: 58%

## 546935 (e[5mC]*eG*eT*eG*eG*dT*dT*dA*dG*d[5mC]*d[5mC]*dT*dG*dA*d[5mC]*eA*eT*e[5mC]*eT*e[5mC]; antisense) [compound 546935]
[3]
  % inhibition: 86%

## 547521 (antisense e[5mC]*eT*eT*e[5mC]*eA*dG*d[5mC]*d[5mC]*dA*dG*dA*d[5mC]*dA*dT*dT*eG*eT*e[5mC]*e[5mC]*eT) [compound 547521]
[5]
  % inhibition: 58%

## 546147 (eT*e[5mC]*eA*eT*eA*dG*dA*dG*dT*dT*dG*dA*dG*dT*d[5mC]*eA*eG*eA*e[5mC]*eA; antisense) [compound 546147]
[6]
  % inhibition: 76%

## 547325 (antisense eG*eA*e[5mC]*e[5mC]*eA*d[5mC]*dA*dT*dT*dG*d[5mC]*dT*dT*d[5mC]*dA*eA*eG*eG*eA*eA) [compound 547325]
[7]
  % inhibition: 67%

## 546258 (eA*e[5mC]*eA*eG*e[5mC]*dG*dA*dA*dT*d[5mC]*dA*dT*d[5mC]*dT*dT*eT*eG*eT*eG*e[5mC]; antisense) [compound 546258]
[8]
  % inhibition: 74%

## 547695 (antisense eA*e[5mC]*eT*eG*eT*d[5mC]*d[5mC]*dT*dA*dT*dA*dA*d[5mC]*dT*dA*eT*eT*eA*e[5mC]*eA) [compound 547695]
[3]
  % inhibition: 31%

## 547660 (eA*eA*e[5mC]*eT*eA*dT*dA*dA*d[5mC]*dA*dG*dT*dA*dT*d[5mC]*eA*e[5mC]*e[5mC]*eG*eT; antisense) [compound 547660]
[2]
  % inhibition: 68%

## 546859 (eT*eT*eT*e[5mC]*e[5mC]*dT*dA*dT*dA*dA*d[5mC]*dT*dA*dT*dA*eA*e[5mC]*eA*eG*eT; antisense) [compound 546859]
[9]
  % inhibition: 7%

## 547490 (antisense eG*eT*eA*eG*eA*d[5mC]*dA*d[5mC]*d[5mC]*dA*dG*dG*dT*dT*dG*e[5mC]*eT*e[5mC]*e[5mC]*e[5mC]) [compound 547490]
[5]
  % inhibition: 55%

## 546136 (eG*eG*eA*eG*eG*dT*dG*dA*dG*dT*d[5mC]*dT*d[5mC]*dT*dT*eG*eT*e[5mC]*eA*e[5mC]; antisense) [compound 546136]
[6]
  % inhibition: 86%

## 547530 (antisense eA*e[5mC]*eA*eA*e[5mC]*dA*d[5mC]*dA*d[5mC]*dA*dG*dT*d[5mC]*dA*dT*eG*eG*eA*eG*eA) [compound 547530]
[10]
  % inhibition: 63%

## 548735 (DNA eA*eT*e[5mC]*eA*d[5mC]*dT*dG*dT*dA*d[5mC]*dT*dA*dG*dT*eT*eT*e[5mC]; antisense) [compound 548735]
[11]
  % inhibition: 48%

## 546288 (antisense eG*eT*eT*eT*eG*dT*dT*d[5mC]*d[5mC]*dT*d[5mC]*d[5mC]*dA*dA*d[5mC]*eA*eA*eT*eG*e[5mC]) [compound 546288]
[8]
  % inhibition: 78%

## 547524 (antisense e[5mC]*eA*eT*eT*eG*dT*d[5mC]*dA*dG*d[5mC]*d[5mC]*d[5mC]*d[5mC]*dT*dG*eG*eT*eT*eA*e[5mC]) [compound 547524]
[5]
  % inhibition: 58%

## 546322 (antisense e[5mC]*eT*eT*eG*eT*dG*dT*d[5mC]*dA*d[5mC]*d[5mC]*dT*dT*dT*dG*eG*eA*eA*eG*eG) [compound 546322]
[12]
  % inhibition: 74%
[13]
  % inhibition: 68%

## 547705 (antisense eG*e[5mC]*eA*e[5mC]*e[5mC]*d[5mC]*dA*dA*dT*dA*d[5mC]*dA*dG*dG*dG*e[5mC]*e[5mC]*eA*eG*eG) [compound 547705]
[3]
  % inhibition: 69%

## 547690 (antisense e[5mC]*eT*eG*eT*eA*dA*d[5mC]*dA*dA*dT*dA*dT*d[5mC]*dA*d[5mC]*eT*eG*eT*e[5mC]*e[5mC]) [compound 547690]
[3]
  % inhibition: 76%

## 546799 (eA*eT*eG*eA*eA*dG*dG*dG*d[5mC]*dG*dA*dG*dG*d[5mC]*dG*e[5mC]*eA*eG*eT*eG; antisense) [compound 546799]
[1]
  % inhibition: 5%

## 547010 (eG*eA*eA*eT*eT*dG*dG*dT*dG*dG*dT*dG*dG*dG*dA*eT*eT*eG*eG*eT; antisense) [compound 547010]
[14]
  % inhibition: 39%

## 546285 (antisense eG*eT*eT*eA*e[5mC]*dA*d[5mC]*dA*dA*dT*d[5mC]*dT*d[5mC]*dA*dA*eA*eG*eA*eG*eT) [compound 546285]
[8]
  % inhibition: 76%

## 546199 (antisense eT*eG*eG*e[5mC]*eA*dT*dT*d[5mC]*dT*dT*d[5mC]*dA*dA*d[5mC]*dA*e[5mC]*eT*eG*e[5mC]*eT) [compound 546199]
[7]
  % inhibition: 97%

## 548754 (antisense eA*eT*e[5mC]*eA*d[5mC]*dT*dG*dT*dA*d[5mC]*dT*dA*dG*dT*eT*eT*e[5mC]*e[5mC]) [compound 548754]
[11]
  % inhibition: 77%

## 547601 (antisense eG*eT*eA*e[5mC]*e[5mC]*dT*dA*dT*dA*dA*d[5mC]*dT*d[5mC]*dT*dA*eA*e[5mC]*eA*eG*eT) [compound 547601]
[9]
  % inhibition: 75%

## 546313 (antisense eG*eG*e[5mC]*eG*eA*dT*dA*dT*d[5mC]*dA*dT*dG*dA*dT*dT*e[5mC]*e[5mC]*e[5mC]*eT*eT) [compound 546313]
[12]
  % inhibition: 60%
[13]
  % inhibition: 75%

## 547562 (e[5mC]*eT*eT*eT*e[5mC]*dT*dT*dG*dA*dG*dA*d[5mC]*dA*dA*dT*e[5mC]*e[5mC]*e[5mC]*eT*eT; antisense) [compound 547562]
[1]
  % inhibition: 59%

## 546954 (e[5mC]*eT*eG*e[5mC]*eT*dG*dA*dT*dT*dG*dT*dG*dT*d[5mC]*dT*eG*eG*e[5mC]*eT*e[5mC]; antisense) [compound 546954]
[3]
  % inhibition: 71%

## 547355 (e[5mC]*eA*eA*eT*eT*dG*dT*dT*d[5mC]*d[5mC]*dG*dG*dT*dA*d[5mC]*eT*e[5mC]*eT*eG*e[5mC]; antisense) [compound 547355]
[7]
  % inhibition: 77%

## 546886 (e[5mC]*eT*eA*eT*eG*dT*d[5mC]*dA*d[5mC]*dT*dG*dT*dA*d[5mC]*d[5mC]*eT*eA*eT*eA*eA; antisense) [compound 546886]
[2]
  % inhibition: 80%

## 548718 (DNA eT*eA*e[5mC]*dT*dA*dG*dT*dT*dT*d[5mC]*d[5mC]*dT*dA*eT*eA*eA*e[5mC]; antisense) [compound 548718]
[4]
  % inhibition: 0%

## 547541 (antisense eT*eA*eT*eA*eG*dA*dT*dG*dT*dT*dT*dA*dT*dT*dG*eT*eA*eG*e[5mC]*e[5mC]) [compound 547541]
[10]
  % inhibition: 36%

## 547369 (eA*eA*eG*e[5mC]*eA*dT*d[5mC]*dT*dG*dG*dA*dG*dT*dG*dA*eG*eA*eA*e[5mC]*e[5mC]; antisense) [compound 547369]
Table 7, HepaRG cells, electroporation with 5,000 nM antisense oligonucleotide, approx. 24 hours, PKK mRNA by RT-PCR (RTS3454), relative to untreated control cells
  % inhibition: 76%

## 546266 (eA*e[5mC]*eA*eG*eT*d[5mC]*dT*dT*d[5mC]*dT*dG*dG*dG*dA*dG*eT*eA*eA*eA*eG; antisense) [compound 546266]
[8]
  % inhibition: 63%

## 547059 (eG*eG*eG*eT*eA*dT*d[5mC]*dT*dT*d[5mC]*dA*d[5mC]*dT*dG*dT*eT*e[5mC]*e[5mC]*eA*eG; antisense) [compound 547059]
[14]
  % inhibition: 12%

## 547532 (antisense e[5mC]*eT*eG*e[5mC]*e[5mC]*dA*dA*d[5mC]*dA*dG*dT*dT*dT*d[5mC]*dA*eA*e[5mC]*eT*eT*eT) [compound 547532]
[10]
  % inhibition: 65%

## 548766 (antisense eT*eA*eT*eA*dT*d[5mC]*dA*d[5mC]*dT*dG*dT*d[5mC]*d[5mC]*eT*eA*eT*eA) [compound 548766]
[11]
  % inhibition: 36%
